Measured values: US20250235460A1, “COMBINATION THERAPY USING GLUCOSE-DEPENDENT INSULINOTROPIC POLYPEPTIDE RECEPTOR ANTAGONIST COMPOUNDS AND GLP-1 RECEPTOR AGONIST COMPOUNDS” (Pfizer Inc., priority 2024, published 2025)

Assays:
[1] = target: human GLP-1R (Homo sapiens, UniProt P43220, G168S); test: CHO GLP-1R Clone H6 cAMP HTRF agonist assay (Assay 1, high receptor density); format: cell-based; conditions: for EC50: CHO GLP-1R clone H6, cAMP HTRF, geometric mean; for Emax: CHO GLP-1R clone H6, arithmetic mean, relative to saturating GLP-1 (1 μM), read-out: Assay 1 Emax (%)
Chain of human GLP-1R (Homo sapiens, UniProt P43220, G168S) (P43220 24-463 G168S): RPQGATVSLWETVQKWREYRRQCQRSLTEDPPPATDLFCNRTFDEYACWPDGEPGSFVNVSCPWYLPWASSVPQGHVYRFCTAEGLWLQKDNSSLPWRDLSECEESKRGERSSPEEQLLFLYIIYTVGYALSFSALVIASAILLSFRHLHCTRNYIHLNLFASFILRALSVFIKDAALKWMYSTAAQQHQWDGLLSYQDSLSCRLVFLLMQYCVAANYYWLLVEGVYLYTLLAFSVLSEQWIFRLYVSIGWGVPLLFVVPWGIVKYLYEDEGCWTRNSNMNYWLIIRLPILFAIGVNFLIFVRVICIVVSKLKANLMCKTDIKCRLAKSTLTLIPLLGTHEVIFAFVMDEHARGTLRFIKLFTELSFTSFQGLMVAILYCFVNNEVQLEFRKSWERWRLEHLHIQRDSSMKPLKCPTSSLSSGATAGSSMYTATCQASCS
Outline: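 Two significant figures are used throughout. Each EC50 is the geometric mean of its replicates, and each Emax is the arithmetic mean.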

[2] = target: human GLP-1R (Homo sapiens, UniProt P43220, L260F); test: CHO GLP-1R Clone C6 cAMP HTRF agonist assay (Assay 2, low receptor density); format: cell-based; conditions: for EC50: geometric mean; for Emax: CHO GLP-1R clone C6, arithmetic mean, relative to saturating GLP-1 (1 μM)
Chain of human GLP-1R (Homo sapiens, UniProt P43220, L260F) (P43220 24-463 L260F): as the sequence (P43220 24-463 G168S) above, with S145G, L237F counted along it
Description: In Table 5 and Table 6, assay data are presented to two (2) significant figures as the geometric mean (EC50s) and arithmetic mean (Emax) based on the number of replicates listed (Number). A blank cell means there was no data for that Example or the Emax was not calculated.

EC50 [1]	Emax [1]	EC50 ([2]; CHO GLP-1R clone C6, cAMP HTRF)	Emax [2]	EC50 ([2]; CHO GLP-1R clone, low receptor density, cAMP HTRF)	SMILES
68 nM	77%	1700 nM	110%		COCCn1c(CN2CC[C@H](c3cccc(OCc4ccc(Cl)cc4F)n3)[C@@H](F)C2)nc2ccc(C(=O)O)cc21 (racemic) [Compound 189B, rac 2-{[(3S,4S)-4-{6-[(4-chloro-2-fluorobenzyl)oxy]pyridin-2-yl}-3-fluoropiperidin-1-yl]methyl}-1-(2-methoxyethyl)-1H-benzimidazole-6-carboxylic acid]
2.8 nM	82%	68 nM	81%		COCCn1c(CN2CC[C@H](c3cccc(OCc4ccc(Cl)cc4F)n3)[C@@H](O)C2)nc2ccc(C(=O)O)cc21 (racemic) [Compound 190B, rac-2-{[(3S,4S)-4-{6-[(4-chloro-2-fluorobenzyl)oxy]pyridin-2-yl}-3-hydroxypiperidin-1-yl]methyl}-1-(2-methoxyethyl)-1H-benzimidazole-6-carboxylic acid]
0.55 nM	77%	9.2 nM	94%		COCCn1c(CN2CC[C@H](c3cccc(OCc4ccc(Cl)cc4F)n3)[C@H](O)C2)nc2ccc(C(=O)O)cc21 (racemic) [Compound 191B, rac-2-{[(3R,4S)-4-{6-[(4-chloro-2-fluorobenzyl)oxy]pyridin-2-yl}-3-hydroxypiperidin-1-yl]methyl}-1-(2-methoxyethyl)-1H-benzimidazole-6-carboxylic acid]
0.99 nM	95%	10 nM	120%		COCCn1c(CN2CC[C@H](c3cccc(OCc4ccc(Cl)cc4F)n3)[C@H](C)C2)nc2ccc(C(=O)O)cc21 (racemic) [Compound 192B, rac-2-{[(3R,4R)-4-{6-[(4-chloro-2-fluorobenzyl)oxy]pyridin-2-yl}-3-methylpiperidin-1-yl]methyl}-1-(2-methoxyethyl)-1H-benzimidazole-6-carboxylic acid]
0.3 nM		4.1 nM	100%		COCCn1c(CN2CC[C@H](c3cccc(OCc4ccc(Cl)cc4F)n3)[C@@H](C)C2)nc2ccc(C(=O)O)cc21 (racemic) [Compound 193B, rac-2-{[(3S,4R)-4-{6-[(4-chloro-2-fluorobenzyl)oxy]pyridin-2-yl}-3-methylpiperidin-1-yl]methyl}-1-(2-methoxyethyl)-1H-benzimidazole-6-carboxylic acid]
4.1 nM	67%	170 nM	75%		CO[C@@H]1CCC[C@@H]1Cn1c(CN2CCC(c3cccc(OCc4ccc(Cl)cc4F)n3)CC2)nc2ccc(C(=O)O)cc21 (racemic) [Compound 196B, rac-2-[(4-{6-[(4-chloro-2-fluorobenzyl)oxy]pyridin-2-yl}piperidin-1-yl)methyl]-1-{[(1S,2S)-2-methoxycyclopentyl]methyl}-1H-benzimidazole-6-carboxylic acid]
28 nM	82%	350 nM	70%		COCCn1c(CN2CC[C@H](c3cccc(OCc4ccc(Cl)cc4F)n3)C[C@H]2C)nc2ccc(C(=O)O)cc21 (relative stereo) [Compound 357B, trans 2-{[4-{6-[(4-Chloro-2-fluorobenzyl)oxy]pyridin-2-yl}-2-methylpiperidin-1-yl]methyl}-1-(2-methoxyethyl)-1H-benzimidazole-6-carboxylic acid]
4.2 nM	69%	77 nM	75%		COCCn1c(CN2CC[C@@H](c3cccc(OCc4ccc(Cl)cc4F)n3)C[C@H]2C)nc2ccc(C(=O)O)cc21 (relative stereo) [Compound 358B, cis 2-{[4-{6-[(4-Chloro-2-fluorobenzyl)oxy]pyridin-2-yl}-2-methylpiperidin-1-yl]methyl}-1-(2-methoxyethyl)-1H-benzimidazole-6-carboxylic acid]
				> 20000 nM	O=C(O)c1ccc2nc(CN3CCC(c4cccc5c4O[C@H](c4ccc(Cl)cc4F)O5)CC3)n(C[C@@H]3CCO3)c2c1 [Compound 4B, Ammonium 2-({4-[(2R)-2-(4-chloro-2-fluorophenyl)-1,3-benzodioxol-4-yl]piperidin-1-yl}methyl)-1-[(2S)-oxetan-2-ylmethyl]-1H-benzimidazole-6-carboxylate]
			82%		N#Cc1ccc(COc2cccc(C3CCN(Cc4nc5ccc(C(=O)O)cc5n4C[C@@H]4CCO4)CC3)n2)c(F)c1 [Compound 110B, 2-[(4-{6-[(4-cyano-2-fluorobenzyl)oxy]pyridin-2-yl}piperidin-1-yl)methyl]-1-[(2S)-oxetan-2-ylmethyl]-1H-benzimidazole-6-carboxylic acid]
			90%		N#Cc1ccc(COc2cccc(C3CCN(Cc4nc5ccc(C(=O)O)cc5n4C[C@@H]4CCOC4)CC3)n2)c(F)c1 [Compound 126B, 2-[(4-{6-[(4-cyano-2-fluorobenzyl)oxy]pyridin-2-yl}piperidin-1-yl)methyl]-1-[(3S)-tetrahydrofuran-3-ylmethyl]-1H-benzimidazole-6-carboxylic acid]
			86%		N#Cc1ccc(COc2nc(C3CCN(Cc4nc5ccc(C(=O)O)cc5n4C[C@@H]4CCCO4)CC3)ccc2F)cc1 [Compound 128B, 2-[(4-{6-[(4-cyanobenzyl)oxy]-5-fluoropyridin-2-yl}piperidin-1-yl)methyl]-1-[(2S)-tetrahydrofuran-2-ylmethyl]-1H-benzimidazole-6-carboxylic acid]
			98%		N#Cc1ccc(COc2nc(C3CCN(Cc4nc5ccc(C(=O)O)cc5n4C[C@H]4CCCO4)CC3)ccc2F)cc1 [Compound 129B, 2-[(4-{6-[(4-cyanobenzyl)oxy]-5-fluoropyridin-2-yl}piperidin-1-yl)methyl]-1-[(2R)-tetrahydrofuran-2-ylmethyl]-1H-benzimidazole-6-carboxylic acid]
1300 nM	42%				Cc1nc(C(C)n2c(CN3CCC(c4cccc(OCc5ccc(Cl)cc5F)n4)CC3)nc3ccc(C(=O)O)cc32)n[nH]1 (centres unmarked) [Compound 342B, 2-[(4-{6-[(4-chloro-2-fluorobenzyl)oxy]pyridin-2-yl}piperidin-1-yl)methyl]-1-[1-(5-methyl-1H-1,2,4-triazol-3-yl)ethyl]-1H-benzimidazole-6-carboxylic acid]
510 nM	64%				O=C(O)c1ccc2nc(CN3CCC(c4cccc(OCc5ccc(Cl)cc5F)n4)CC3)n(C[C@H]3CCCO3)c2c1 [Compound 343B, 2-[(4-{6-[(4-chloro-2-fluorobenzyl)oxy]pyridin-2-yl}piperidin-1-yl)methyl]-1-[(2R)-tetrahydrofuran-2-ylmethyl]-1H-benzimidazole-6-carboxylic acid]
1200 nM	58%				COCCn1c(CN2CCN(c3cccc(OCc4ccc(Cl)cc4F)n3)CC23CC3)nc2ccc(C(=O)O)cc21 [Compound 349B, 2-[(7-{6-[(4-chloro-2-fluorobenzyl)oxy]pyridin-2-yl}-4,7-diazaspiro[2.5]oct-4-yl)methyl]-1-(2-methoxyethyl)-1H-benzimidazole-6-carboxylic acid]
420 nM	81%				COCCn1c(CN2CCN(c3cccc(OCc4ccc(Cl)cc4F)n3)C[C@@H]2C2CC2)nc2ccc(C(=O)O)cc21 [Compound 350B, 2-{[(2S)-4-{6-[(4-chloro-2-fluorobenzyl)oxy]pyridin-2-yl}-2-cyclopropylpiperazin-1-yl]methyl}-1-(2-methoxyethyl)-1H-benzimidazole-6-carboxylic acid]
